Measurements reported in the kinase profiling compilation of Christmann-Franck et al. (2016).
Values belong to the compound of their own block, whether it stands above or below them.

Key:
Test in all cases: radiometric filter-binding kinase assay
MAPKAPK2 (human) = MAPKAPK2 (human) (UniProt P49137)
ROCK2 (rat) = settings: accession and sequence are those of the human protein
[1] = tested on: SGK1 (human), O00141 [S422D]
HIPK2 (human) = HIPK2 (human) (UniProt Q9H2X6)
MELK (human) = MELK (human) (UniProt Q14680)
Chain of MELK (human) (Q14680 whole entry, looked up): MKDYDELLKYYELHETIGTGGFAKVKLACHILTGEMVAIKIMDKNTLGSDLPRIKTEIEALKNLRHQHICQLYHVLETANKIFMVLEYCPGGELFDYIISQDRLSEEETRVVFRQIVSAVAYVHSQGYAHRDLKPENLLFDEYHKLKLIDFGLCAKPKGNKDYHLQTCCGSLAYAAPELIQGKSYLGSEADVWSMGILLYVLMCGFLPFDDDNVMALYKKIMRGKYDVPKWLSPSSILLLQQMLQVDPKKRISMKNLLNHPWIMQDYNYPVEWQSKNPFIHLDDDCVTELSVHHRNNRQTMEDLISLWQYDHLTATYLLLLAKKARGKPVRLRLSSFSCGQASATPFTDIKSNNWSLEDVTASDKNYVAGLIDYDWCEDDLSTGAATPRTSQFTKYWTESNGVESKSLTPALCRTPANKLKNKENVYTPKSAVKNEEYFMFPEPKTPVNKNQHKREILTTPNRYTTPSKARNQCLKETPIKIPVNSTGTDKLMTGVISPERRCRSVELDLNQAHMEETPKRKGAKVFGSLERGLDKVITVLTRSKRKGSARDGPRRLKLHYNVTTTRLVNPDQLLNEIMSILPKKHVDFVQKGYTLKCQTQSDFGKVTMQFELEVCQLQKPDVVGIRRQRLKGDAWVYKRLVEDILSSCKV

PIM1 (human) = PIM1 (human) (UniProt P11309)
Chain of PIM1 (human) (P11309 whole entry, looked up): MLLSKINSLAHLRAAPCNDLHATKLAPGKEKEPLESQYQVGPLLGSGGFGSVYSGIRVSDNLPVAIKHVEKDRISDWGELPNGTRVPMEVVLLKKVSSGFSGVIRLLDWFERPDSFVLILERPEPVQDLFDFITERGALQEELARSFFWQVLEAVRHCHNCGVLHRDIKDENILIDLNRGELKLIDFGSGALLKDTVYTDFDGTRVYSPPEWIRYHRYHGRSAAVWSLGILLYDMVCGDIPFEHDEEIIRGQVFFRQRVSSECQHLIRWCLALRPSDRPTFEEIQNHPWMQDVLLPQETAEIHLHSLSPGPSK

IKBKE (human) = IKBKE (human) (UniProt Q14164)
MAPK12 (human) = MAPK12 (human) (UniProt P53778)
Chain of MAPK12 (human) (P53778 whole entry, looked up): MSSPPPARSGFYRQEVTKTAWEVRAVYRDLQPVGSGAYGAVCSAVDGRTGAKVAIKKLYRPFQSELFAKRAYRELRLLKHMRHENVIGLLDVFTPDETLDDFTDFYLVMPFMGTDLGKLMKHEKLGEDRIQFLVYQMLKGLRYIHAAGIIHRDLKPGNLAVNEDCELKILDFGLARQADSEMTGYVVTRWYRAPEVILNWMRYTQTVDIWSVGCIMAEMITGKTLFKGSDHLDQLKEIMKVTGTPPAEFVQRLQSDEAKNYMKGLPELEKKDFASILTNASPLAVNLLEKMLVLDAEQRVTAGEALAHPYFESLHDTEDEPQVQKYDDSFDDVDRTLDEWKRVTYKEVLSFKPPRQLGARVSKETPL

MYLK (human) = MYLK (human) (UniProt Q15746)
PKN2 (human) = PKN2 (human) (UniProt Q16513)
Chain of PKN2 (human) (Q16513 whole entry, looked up): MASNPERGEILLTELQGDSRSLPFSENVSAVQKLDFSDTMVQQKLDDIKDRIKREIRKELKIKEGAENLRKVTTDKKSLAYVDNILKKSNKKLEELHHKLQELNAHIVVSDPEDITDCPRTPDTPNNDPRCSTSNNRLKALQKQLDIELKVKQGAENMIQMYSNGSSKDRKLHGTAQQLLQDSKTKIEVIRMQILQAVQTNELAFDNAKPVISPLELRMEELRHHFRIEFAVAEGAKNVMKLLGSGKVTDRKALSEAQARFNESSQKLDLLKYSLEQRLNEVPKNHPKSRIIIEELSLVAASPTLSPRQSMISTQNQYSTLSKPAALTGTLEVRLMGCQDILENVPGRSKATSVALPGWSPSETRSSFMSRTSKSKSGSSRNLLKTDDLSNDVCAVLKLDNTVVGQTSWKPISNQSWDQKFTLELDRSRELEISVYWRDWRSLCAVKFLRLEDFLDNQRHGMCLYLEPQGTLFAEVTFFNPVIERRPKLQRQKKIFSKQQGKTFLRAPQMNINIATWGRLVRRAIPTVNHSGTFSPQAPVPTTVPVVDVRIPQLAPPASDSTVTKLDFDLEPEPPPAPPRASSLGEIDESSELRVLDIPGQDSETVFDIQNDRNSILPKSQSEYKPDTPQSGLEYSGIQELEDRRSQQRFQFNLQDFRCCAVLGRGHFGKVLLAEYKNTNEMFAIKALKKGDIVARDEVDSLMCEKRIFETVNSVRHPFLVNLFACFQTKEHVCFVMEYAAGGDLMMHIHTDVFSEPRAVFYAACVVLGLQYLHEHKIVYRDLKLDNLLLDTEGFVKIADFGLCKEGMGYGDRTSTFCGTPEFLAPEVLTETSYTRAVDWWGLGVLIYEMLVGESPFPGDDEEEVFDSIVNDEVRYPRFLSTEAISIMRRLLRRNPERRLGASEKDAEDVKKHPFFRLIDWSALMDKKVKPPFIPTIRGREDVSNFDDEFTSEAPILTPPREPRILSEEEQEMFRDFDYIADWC

[2] = tested on: RPS6KB1 (human), P23443 [T412E]
NEK2 (human) = NEK2 (human) (UniProt P51955)
MAPK14 (human) = MAPK14 (human) (UniProt Q16539)
DYRK2 (human) = DYRK2 (human) (UniProt Q92630)
Chain of DYRK2 (human) (Q92630 whole entry, looked up): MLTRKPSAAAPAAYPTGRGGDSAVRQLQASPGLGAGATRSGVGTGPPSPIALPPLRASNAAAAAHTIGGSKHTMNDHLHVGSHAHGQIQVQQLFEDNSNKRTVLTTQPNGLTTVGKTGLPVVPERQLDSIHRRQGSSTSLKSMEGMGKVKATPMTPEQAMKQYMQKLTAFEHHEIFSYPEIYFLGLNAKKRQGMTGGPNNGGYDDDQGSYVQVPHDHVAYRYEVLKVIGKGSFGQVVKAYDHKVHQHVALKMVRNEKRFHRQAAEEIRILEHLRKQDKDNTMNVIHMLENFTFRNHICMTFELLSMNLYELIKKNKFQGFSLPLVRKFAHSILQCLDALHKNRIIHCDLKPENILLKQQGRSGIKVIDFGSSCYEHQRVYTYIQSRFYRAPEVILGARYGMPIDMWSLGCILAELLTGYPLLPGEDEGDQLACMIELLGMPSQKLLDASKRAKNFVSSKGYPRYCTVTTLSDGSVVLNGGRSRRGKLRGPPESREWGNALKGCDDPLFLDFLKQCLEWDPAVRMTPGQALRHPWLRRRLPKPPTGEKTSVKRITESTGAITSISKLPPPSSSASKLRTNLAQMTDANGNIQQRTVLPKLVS

EPHA2 (human) = EPHA2 (human) (UniProt P29317)
CHEK2 (human) = CHEK2 (human) (UniProt O96017)
Chain of CHEK2 (human) (O96017 whole entry, looked up): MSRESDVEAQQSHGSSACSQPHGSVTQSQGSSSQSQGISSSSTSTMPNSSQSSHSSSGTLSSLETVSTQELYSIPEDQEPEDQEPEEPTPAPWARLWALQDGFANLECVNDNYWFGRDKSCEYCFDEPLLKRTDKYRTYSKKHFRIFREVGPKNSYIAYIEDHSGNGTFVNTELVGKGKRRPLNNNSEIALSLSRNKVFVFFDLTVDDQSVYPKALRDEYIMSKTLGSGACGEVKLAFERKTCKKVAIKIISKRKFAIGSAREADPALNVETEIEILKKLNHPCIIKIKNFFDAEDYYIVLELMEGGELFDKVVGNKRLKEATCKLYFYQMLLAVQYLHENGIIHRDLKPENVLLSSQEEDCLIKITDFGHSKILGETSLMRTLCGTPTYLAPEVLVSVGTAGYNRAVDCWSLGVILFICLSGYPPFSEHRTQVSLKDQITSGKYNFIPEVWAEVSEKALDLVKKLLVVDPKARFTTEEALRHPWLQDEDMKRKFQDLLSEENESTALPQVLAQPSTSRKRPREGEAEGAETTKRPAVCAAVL

STK3 (human) = STK3 (human) (UniProt Q13188)
FLT1 (human) = FLT1 (human) (UniProt P17948)
DYRK3 (human) = DYRK3 (human) (UniProt O43781)
PRKCA (human) = PRKCA (human) (UniProt P17252)
MAPKAPK5 (human) = MAPKAPK5 (human) (UniProt Q8IW41)
RPS6KA1 KD1 KD2 (human) = RPS6KA1 KD1 KD2 (human) (UniProt Q15418)
PIM3 (human) = PIM3 (human) (UniProt Q86V86)

Chain of MAPKAPK2 (human) (P49137 whole entry, looked up): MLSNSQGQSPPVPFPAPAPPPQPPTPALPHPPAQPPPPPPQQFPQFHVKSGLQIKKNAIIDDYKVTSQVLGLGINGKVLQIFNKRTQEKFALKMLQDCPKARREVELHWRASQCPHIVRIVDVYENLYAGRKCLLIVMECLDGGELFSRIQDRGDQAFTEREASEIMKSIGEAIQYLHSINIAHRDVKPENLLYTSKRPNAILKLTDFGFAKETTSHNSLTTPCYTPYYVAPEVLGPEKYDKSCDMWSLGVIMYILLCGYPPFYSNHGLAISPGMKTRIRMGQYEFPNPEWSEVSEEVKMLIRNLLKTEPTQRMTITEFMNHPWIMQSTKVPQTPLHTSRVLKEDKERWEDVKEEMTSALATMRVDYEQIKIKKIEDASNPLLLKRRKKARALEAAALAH

- residual activity (MAPKAPK2 (human); compound 0.1 µM): 102%
- residual activity (MAPKAPK2 (human); compound 1.0 µM): 89%
- residual activity (ROCK2 (rat); compound 0.1 µM): 91%
- residual activity (ROCK2 (rat); compound 1.0 µM): 93%
- residual activity ([1]; compound 0.1 µM): 102%
- residual activity (HIPK2 (human); compound 0.1 µM): 103%
- residual activity (HIPK2 (human); compound 1.0 µM): 112%
- residual activity (MELK (human); compound 0.1 µM): 98%
- residual activity (MELK (human); compound 1.0 µM): 90%
- residual activity (PIM1 (human); compound 0.1 µM): 90%
- residual activity (PIM1 (human); compound 1.0 µM): 97%
- residual activity (IKBKE (human); compound 0.1 µM): 87%
- residual activity (IKBKE (human); compound 1.0 µM): 90%
- residual activity (MAPK12 (human); compound 0.1 µM): 97%
- residual activity (MAPK12 (human); compound 1.0 µM): 110%
- residual activity (MYLK (human); compound 0.1 µM): 90%
- residual activity (MYLK (human); compound 1.0 µM): 91%
- residual activity (PKN2 (human); compound 0.1 µM): 89%
- residual activity ([2]; compound 0.1 µM): 100%
- residual activity ([2]; compound 1.0 µM): 98%
- residual activity (NEK2 (human); compound 0.1 µM): 107%
- residual activity (NEK2 (human); compound 1.0 µM): 102%
- residual activity (MAPK14 (human); compound 0.1 µM): 88%
- residual activity (MAPK14 (human); compound 1.0 µM): 89%
- residual activity (DYRK2 (human); compound 0.1 µM): 81%
- residual activity (DYRK2 (human); compound 1.0 µM): 87%
- residual activity (EPHA2 (human); compound 0.1 µM): 96%
- residual activity (EPHA2 (human); compound 1.0 µM): 102%
- residual activity (CHEK2 (human); compound 0.1 µM): 86%
- residual activity (CHEK2 (human); compound 1.0 µM): 83%
- residual activity (STK3 (human); compound 0.1 µM): 97%
- residual activity (STK3 (human); compound 1.0 µM): 89%
- residual activity (FLT1 (human); compound 0.1 µM): 80%
- residual activity (FLT1 (human); compound 1.0 µM): 84%
- residual activity (DYRK3 (human); compound 0.1 µM): 96%
- residual activity (DYRK3 (human); compound 1.0 µM): 98%
- residual activity (PRKCA (human); compound 0.1 µM): 101%
- residual activity (PRKCA (human); compound 1.0 µM): 100%
- residual activity (MAPKAPK5 (human); compound 0.1 µM): 96%
- residual activity (MAPKAPK5 (human); compound 1.0 µM): 86%
- residual activity (RPS6KA1 KD1 KD2 (human); compound 0.1 µM): 74%
- residual activity (RPS6KA1 KD1 KD2 (human); compound 1.0 µM): 78%
- residual activity (PIM3 (human); compound 0.1 µM): 99%
- residual activity (PIM3 (human); compound 1.0 µM): 97%
SMILES: Cn1c(=O)c2c(ncn2C)n(C)c1=O

- residual activity (MAPKAPK2 (human); compound 1.0 µM): 97%
- residual activity (MAPKAPK2 (human); compound 10.0 µM): 95%
- residual activity (ROCK2 (rat); compound 1.0 µM): 117%
- residual activity (ROCK2 (rat); compound 10.0 µM): 113%
- residual activity ([1]; compound 1.0 µM): 97%
- residual activity ([1]; compound 10.0 µM): 98%
- residual activity (HIPK2 (human); compound 1.0 µM): 113%
- residual activity (HIPK2 (human); compound 10.0 µM): 105%
- residual activity (MELK (human); compound 1.0 µM): 109%
- residual activity (MELK (human); compound 10.0 µM): 91%
- residual activity (PIM1 (human); compound 1.0 µM): 111%
- residual activity (PIM1 (human); compound 10.0 µM): 115%
- residual activity (MAPK12 (human); compound 1.0 µM): 113%
- residual activity (MAPK12 (human); compound 10.0 µM): 112%
- residual activity (MYLK (human); compound 1.0 µM): 94%
- residual activity (MYLK (human); compound 10.0 µM): 107%
- residual activity (PKN2 (human); compound 1.0 µM): 103%
- residual activity (PKN2 (human); compound 10.0 µM): 109%
- residual activity ([2]; compound 1.0 µM): 114%
- residual activity ([2]; compound 10.0 µM): 114%
- residual activity (NEK2 (human); compound 1.0 µM): 102%
- residual activity (NEK2 (human); compound 10.0 µM): 100%
- residual activity (MAPK14 (human); compound 1.0 µM): 93%
- residual activity (MAPK14 (human); compound 10.0 µM): 80%
- residual activity (DYRK2 (human); compound 1.0 µM): 86%
- residual activity (DYRK2 (human); compound 10.0 µM): 83%
- residual activity (CHEK2 (human); compound 1.0 µM): 103%
- residual activity (CHEK2 (human); compound 10.0 µM): 96%
- residual activity (STK3 (human); compound 1.0 µM): 102%
- residual activity (STK3 (human); compound 10.0 µM): 104%
- residual activity (DYRK3 (human); compound 1.0 µM): 119%
- residual activity (DYRK3 (human); compound 10.0 µM): 101%
- residual activity (PRKCA (human); compound 1.0 µM): 120%
- residual activity (PRKCA (human); compound 10.0 µM): 121%
- residual activity (MAPKAPK5 (human); compound 1.0 µM): 107%
- residual activity (MAPKAPK5 (human); compound 10.0 µM): 109%
- residual activity (RPS6KA1 KD1 KD2 (human); compound 1.0 µM): 121%
- residual activity (RPS6KA1 KD1 KD2 (human); compound 10.0 µM): 102%
- residual activity (PIM3 (human); compound 1.0 µM): 101%
- residual activity (PIM3 (human); compound 10.0 µM): 95%
SMILES: Cn1nc(Nc2ccc(F)cc2)c2c(N)ncnc21
